In the experiment the test system is respiratory viruses (Corona Virus on MRC5 Cells, Influenza Virus A on MDCK Cells, Respiratory Syncytial Virus on HEp2 cells, Adenovirus serotype 5 on A549 …). Kind of experiment: Respiratory viruses: virus grown in the presence of compound, infectious virus titrated by TCID50. It counts as cell-based. To be noted: qualitative statement; compound tested at 10 μM, 2 μM, 0.4 μM and 0.08 μM. The method, then:
The activities of compounds of the invention were determined for the following viruses using the protocol below:
Corona Virus on MRC5 Cells
Influenza Virus A on MDCK Cells
Respiratory Syncytial Virus on HEp2 cells
Adenovirus serotype 5 on A549 cells
Human Rhinovirus on H1Hela Cells
Herpes Simplex Virus 1 on Vero cells
Virus was grown in the presence of four dilutions (10 μM, 2 μM, 0.4 μM and 0.08 μM) of the chemical compound tested with two controls using standard methods and materials for the relevant virus. The infected cell extract was collected using known methods, and the infectious virus concentration was determined using standard techniques.
Each well was titrated by TCID50. Four serial dilutions in quadruplicate required to determine the titer of each well. To assay 36 replicates as directed, one hundred eight (108) 96-well plates will be required. Each drug was tested at four dilutions against one virus will require TCID50 titers of 18 sample wells.

These results are taken from patent publication US8785434B2, “Antiviral compounds” (Prosetta Antiviral Inc., priority 2010, dated 2014).

With `Cc1cc(N(C)C)cc2[s+]c3cc(N4CCN(C)CC4)cc(C)c3nc12.[I-]` [3-(Dimethylamino)-1,9-dimethyl-7-(4-methylpiperazin-1-yl)phenothiazin-5-ium iodide], the “activity across all of the respiratory viruses tested (pan-respiratory anti-viral activity)” value is given as “surprisingly strong activity across all of the respiratory viruses tested”.
